Data published in a melting point compilation (Tetko et al.; mined from patent text by program, amines drawn as free bases though some values may be those of a salt).

With `Cc1cccc(NC(c2ccc(C(F)(F)F)cc2)c2ccc3cccnc3c2O)n1` (configuration not stated) the melting point was 136 to 138 °C. With `N#Cc1cnn(-c2ccc(Cl)cc2Cl)c1C(F)(F)F` the melting point was 83 to 85 °C. With `Fc1ccc(-c2ccc3c(c2)C2(CCCCC2)C(=NOCc2ccccc2)N3)cc1` the melting point was 205 to 208 °C. `COc1ccc(/C=C(\C#N)c2cccc(F)c2)cc1OC1CCCC1` showed a melting point of 114 to 116 °C. `COc1cc(C(F)(F)F)sc1C(=O)O` showed a melting point of 131 to 132 °C. Work on `Oc1ccc2c(c1)CCCC(c1ccccc1)=C2c1ccc(OCCCCSCc2ccccn2)cc1` yielded a melting point of 155 °C. `O=C1c2ccccc2S(=O)(=O)N1C(c1cccs1)c1nnnn1-c1ccccc1` (configuration not stated) showed a melting point of 192 to 193 °C. Work on `Nc1ccccc1C(=O)NN=Cc1c(O)ccc2ccccc12` yielded a melting point of 188 to 191 °C. With `CCC(=O)C(O)=NNc1cc([N+](=O)[O-])ccc1Br` the melting point was 263 to 265 °C. With `Cc1cnc(N2CCN(c3ccc([N+](=O)[O-])cc3)CC2)n1C` the melting point was 204 to 205 °C. With `O=CNNc1ccc(NC(=O)c2cccc([N+](=O)[O-])c2)cc1` the melting point was 185 to 187 °C. In the case of `C#CC(=O)NCCCCC`, the melting point is reported as 59 to 60.2 °C. Work on `CN1CCC(c2cc3c(N(C)C)cccc3c(=O)[nH]2)CC1` yielded a melting point of 216 to 218 °C. `CCC(CC(=O)O)c1ccc(C(=O)OC)cc1` (configuration not stated) showed a melting point of 165 to 166 °C. With `O=C(O)C1CCc2cc(O)ccc2O1` (racemic) the melting point was 175 to 177 °C. With `O=C(Nc1ccc(F)cc1F)C1c2ccccc2COc2ccc(Br)cc21` (configuration not stated) the melting point was 189 to 191 °C. With `CC12CC=C3C(CCC4(CCC#N)CC(O[Si](C)(C)C(C)(C)C)CCC34C)C1CCC2O[Si](C)(C)C(C)(C)C` (configuration not stated) the melting point was 194 to 195 °C. `CCOc1cc(-c2ccc(C(F)(F)F)cc2)nc(-c2cccc(C(F)(F)F)c2)c1` showed a melting point of 95.1 °C. Molecule `CN(C)c1ccc(CNC(=O)c2cccnc2Oc2ccc(F)cc2)cc1` has a melting point of 99.5 to 102 °C. Molecule `Cn1c(SC(C(=O)O)c2ccccc2)nc2ccccc21` (configuration not stated) has a melting point of 157 to 159 °C. `CCCc1nn2ncc(C(=O)O)c2n1Cc1ccc(-c2ccccc2-c2nc(=O)o[nH]2)cc1` gave a melting point of 223 to 225 °C. Work on `O=[N+]([O-])c1cccnc1Sc1ncccn1` yielded a melting point of 122 to 124 °C. With `COC(=O)CCn1ccc2cc([N+](=O)[O-])ccc21` the melting point was 97 to 99 °C. For `CCN1CCN(Cn2nc(-c3ccsc3)c3c2-c2ccccc2C3)CC1`, the melting point was 111 to 112 °C. `O=C(c1ccccc1)N1CCN(c2cncc(Cl)n2)CC1` gave a melting point of 104 to 105 °C. Molecule `CCC(=NO)C(C)(C)NCC(C)(C)CN` has a melting point of 118 to 120 °C. In the case of `CCCn1c(C)nn(-c2ccc([N+](=O)[O-])cc2)c1=O`, the melting point is reported as 125 °C. In the case of `CN(c1cccc2cc(-c3ncc(CN4CCOCC4)s3)[nH]c12)S(=O)(=O)c1cccs1`, the melting point is reported as 181 to 182 °C. `COC(=O)C(Cc1cc([N+](=O)[O-])ccc1Cl)C(=O)OC` gave a melting point of 72 to 74 °C. With `CN1CCCC(OC(=O)Nc2ccc(C(F)(F)F)cc2)C1` (configuration not stated) the melting point was 119 to 120 °C. Molecule `Oc1ccc2c(c1)CCCC(c1ccccc1)=C2c1ccc(OCCCCCSCc2ccccc2)cc1` has a melting point of 178 to 186 °C. With `COc1c2c(nc3ccccc13)CCNCC2` the melting point was 112 °C. For `CC(=O)C=C(c1ccc(C#N)cc1)n1ccnc1`, the melting point was 123 to 126 °C. Work on `NCC(O)c1cc(C(N)=O)c2[nH]ccc2c1` (configuration not stated) yielded a melting point of 88 to 90 °C. In the case of `O=C1CCC(c2ccc3nc(-c4ccncc4)[nH]c3c2)=NN1`, the melting point is reported as over 320 °C. `COC(=O)c1cc2c(Nc3ncccn3)cccc2s1` showed a melting point of 206 to 208 °C. In the case of `CCOCCOc1ccc(-c2ccc3c(c2)C=C(C(=O)Nc2ccc(CN(C)C4CCOCC4)cc2)CCS3(=O)=O)cc1Cl`, the melting point is reported as 203 to 205 °C. `CN(c1ccc(O)cc1)c1cc2ccc(Cl)cc2cn1` showed a melting point of 140 °C. `COC=C(C(=O)OC)c1scnc1COc1ccccc1` gave a melting point of 133 °C. Molecule `ClCCOc1ccc(C2=C(c3ccccc3)CCCc3ccccc32)cc1` has a melting point of 171 to 172 °C. `COc1cc(O)c(CN(CCc2ccc([N+](=O)[O-])cc2)C(=O)OC(C)(C)C)c(OC)c1` showed a melting point of 134 °C. For `CCN(CC)CCNc1ccc(NCCN(CC)CC)c2c1C(=O)c1c(O)ccc(O)c1C2=O`, the melting point was 202 to 204 °C. With `N#Cc1c(O)cc(C(F)(F)F)cc1Cl` the melting point was 138 °C. With `O=C1CC(=CN2CCOCC2)Oc2c(O)cccc21` the melting point was 202 °C. `COc1ccc2c(n1)C1(CO2)C(=O)Nc2ccccc21` (configuration not stated) showed a melting point of 199 to 200 °C. In the case of `Cc1cccc2c1N(CC(=O)c1ccccc1O)C(=O)C(NC(=O)Nc1cccc(-c3nnn[nH]3)c1)N=C2c1ccccc1F` (configuration not stated), the melting point is reported as 221 to 225 °C. `COc1cc(C=O)ccc1OCC(=O)c1cc(C(C)(C)C)c(O)c(C(C)(C)C)c1` gave a melting point of 99 to 100 °C. Molecule `O=C(O)c1ccc(S(=O)(=O)C(Br)(Br)Br)cc1` has a melting point of over 305 °C. `CCCOc1ccccc1-c1nc2c(CCC)nn(C)c2c(=O)[nH]1` showed a melting point of 115 to 116 °C. Molecule `COCCn1cc2c(=O)[nH]c(=O)[nH]c2n1` has a melting point of 295 to 302 °C. `COc1ccc2ccnc(N)c2c1` gave a melting point of 128 to 130 °C. `O=[N+]([O-])c1ccc(-n2ccnc2)cc1` showed a melting point of 150 °C.
